# Where a name gives a salt, the structure may show the parent alone. Read-outs that look alike come from different tables or passages of the source.
# Experiments:
# Format in all cases: physicochemical
# [1] = Chemical stability of Guanfacine solutions in WFI at room temperature (vials, IV bags; HPLC); settings: for degraded at 72 h: 0.5 mg/mL
# Protocol: Guanfacine HCl powder (Laxai Avanti, Lot CPL-01-2013-014-033) was dissolved in WFI at a concentration of 0.5 mg/mL, passed through a 0.22 μm PVDF membrane in a biosafety cabinet, and then filled into 20 mL glass vials (particle free), or 150 ml polyolefin IV bags. The vials and IV bags were stored at room temperature conditions. The Guanfacine solutions in the vials and IV bags were at pH 5.7 and 5.0, respectively. After 72 hours at room temperature the Guanfacine solution in the vials formed a degradation product at 0.23% and the Guanfacine solution in the IV bags formed a degradation product at 0.16%.
# Additionally, Guanfacine HCl (Laxai Avanti, Lot CPL-01-2013-014-033) was dissolved in WFI to a final concentration of 1.14 mg/mL, pH 4.5, passed through a 0.22 μm PVDF membrane in a biosafety cabinet, and then filled into glass vials. The glass vials were stored at room temperature conditions.
# [2] = Guanfacine solubility at pH 7.0 and 8.0; settings: for solubility at 1 h: sodium phosphate buffer, aqueous buffer, 0.22 μm filtered, HPLC, read-out: concentration of filtered sample (solubility)
# Protocol: Stock solutions of acetic acid and sodium acetate were used for making another pH 4.0 sample and a pH 5.0 sample. For the pH 4.0 sample, 920 μL of acetic acid was added to 80 μL of sodium acetate and then the final solution was prepared as described above to achieve a 5 mM buffer concentration. For the pH 5.0 sample, 700 μL of acetic acid was added to 1,300 μL of sodium acetate and 1.0 mLs of that buffer stock solution was added to make a final buffer concentration of 20 mM. With the exception of the buffer concentration, the pH 5.0 sample solution was completed as described above. Another sample solution was also made at 20 mM sodium acetate, pH 5.0, except the solvent was sparged with nitrogen and the head space of the vial was purged with nitrogen just prior to stoppering in order to remove air from the sample. For the pH 6.0 sample, a stock solution with 1,840 μL of 0.5 M sodium phosphate monobasic and 160 μL of 0.5 M sodium phosphate dibasic was made that was then diluted to 10 mM sodium phosphate by adding 1.0 mL to a final of 50 grams of solution. The solution was then completed as described previously.
# Follow up testing was done to confirm that Guanfacine solubility was lower at pH 7.0 and 8.0 compared to the other samples made at pH levels≤6.0. For the pH 7.0 sample, a stock solution of 0.192 mL of 0.5 M sodium phosphate monobasic and 0.208 mLs of 0.5 M sodium phosphate dibasic was added to a glass tube followed by ~8.0 mLs of WFI and ~11.5 mg of Guanfacine-HCl. The solution was then adjusted to pH 7.0 with a solution of 0.2 N NaOH and adjusted to a volume of 10 mLs with WFI. For the pH 8.0 sample, a stock solution of 0.028 mL of 0.5 M sodium phosphate monobasic and 0.372 mLs of 0.5 M sodium phosphate dibasic was added to a glass tube followed by ~8.0 mLs of WFI and 11.48 mg of Guanfacine-HCl. The solution was then adjusted to pH 8.0 with a solution of 0.2 N NaOH and adjusted to a volume of 10 mLs with WFI. […] After 1 hour of sonication both samples were then filtered through a 0.22 μm PVDF filter and analyzed by HPLC. The concentration of the filtered pH 7.0 sample was ~0.35 mg/mL and the concentration of the filtered pH 8.0 sample was ~0.12 mg/mL. Therefore Guanfacine-HCl was less soluble at pH 7.0 and 8.0 compared to pH levels of 6.0 and lower.
# [3] = Compatibility of Guanfacine with Ropivacaine (appearance, pH, particulate matter); settings: for Particulate Matter 10 μm / Particulate Matter 25 μm: Guanfacine only in WFI, filtered, before mixing; for concentration of Guanfacine freebase in the WFI control: HPLC
# Protocol: The compatibility of 1.0 mg/mL and 0.1 mg/mL solutions of Guanfacine diluted into 30 mL Ropivacaine (USP 5 mg/mL Hospira, Lot-48-031-DK) was tested. A 0.1 and 1.0 mg/mL solution of Guanfacine free base in water for injection (WFI) was prepared. For every 1.148 mg of Guanfacine-HCl there is 1 mg of Guanfacine free base. For the 0.1 mg/mL solution, 57.4 mg of Guanfacine-HCl (lot #CPL-01-2013-014-033 Laxai Avanti) was dissolved in 400 mL of WFI (Hospira 1000 mL Bag, Lot 51-114-JT). Once fully dissolved, the solution was transferred to a 500 mL volumetric flask and q.s. to volume. For the 1.0 mg/mL solution, 114.8 mg of Guanfacine-HCl was dissolved in 80 mL of WFI. Once fully dissolved, the solution was transferred to a 100 mL volumetric flask and q.s. to volume.
# Two glass vials were rinsed with WFI three times and emptied. The vials were rinsed with filtered Guanfacine solution three times, 5 mLs at a time. Approximately 35 mLs of the Guanfacine solutions were filtered into the vials using a Millex GV Sterile PVDF 0.22 μm syringe filter. The particulate content in the filtered Guanfacine solutions was determined prior to adding to the Ropivacaine vial using an APSS Liquiliaz particle counter. 1.2 mLs of filtered Guanfacine solutions at 0.1 or 1.0 mg/mL were injected into three separate vials containing Ropivacaine for each concentration (1:25 dilution of Guanfacine:Ropivacaine). The concentration of Guanfacine freebase in the WFI control was 0.10 mg/mL and 1.05 mg/mL, as determined by HPLC. The compatibility solutions were not able to be analyzed by the HPLC assay for Guanfacine because Guanfacine and Ropivacaine have very similar elution times and only the Ropivacaine peak could be seen on the chromatogram.
# The appearance, pH, and particulate content for one vial at each concentration at time zero, 4 to 6 hours, and 24 hours was assessed and the results are reported in Table 1, below.
structure (smiles),measurement,setting,value
"N=C(N)NC(=O)Cc1c(Cl)cccc1Cl [Guanfacine-HCl, N-amidino-2-(2,6-dichlorophenyl) acetamide monohydrochloride]",Area % of peak 2,"[1]; 1.14 mg/mL Guanfacine-HCl in WFI, pH 4.5, glass vials, 1 week, RRT 1.44",0.02%
same,Area % of peak 3 (degradation product),"[1]; 1.14 mg/mL Guanfacine-HCl in WFI, pH 4.5, glass vials, 1 week, RRT 8.72, 10080 min",0.26%
same,Area % of guanfacine peak (peak 1),"[1]; 1.14 mg/mL Guanfacine-HCl in WFI, pH 4.5, glass vials, time zero, RRT 1",99.98%
same,Area % of peak 2,"[1]; 1.14 mg/mL Guanfacine-HCl in WFI, pH 4.5, glass vials, time zero, RRT 1.45",0.02%
same,remaining at 168 h,"[1]; water, 1.14 mg/mL Guanfacine-HCl in WFI, pH 4.5, glass vials, 1 week, RRT 1, read-out: Area % of guanfacine peak (peak 1)",99.7%
same,solubility compared to pH levels of 6.0 and lower,[2]; pH 7.0 and 8.0,less soluble
same,appearance of solution,"[2]; pH 7.0 and pH 8.0 samples (both), after 1 hour of sonication",cloudy and contained precipitate
same,solubility at 1 h,"[2]; pH 7.0, sodium phosphate, after 1 hour of sonication",~350 µg/mL
same,solubility at 1 h,"[2]; pH 8.0, sodium phosphate, after 1 hour of sonication",~120 µg/mL
N=C(N)NC(=O)Cc1c(Cl)cccc1Cl [Guanfacine],Area % of guanfacine peak (peak 1),"[1]; 0.5 mg/mL in WFI in IV bags, pH 5.0, time zero, RRT 1.00",99.94%
same,Area % of peak 2 (degradation product),"[1]; 0.5 mg/mL in WFI in IV bags, pH 5.0, time zero, RRT 8.77",0.06%
same,Area % of peak 2,"[1]; 0.5 mg/mL in WFI in vials, pH 5.7, 24 hours, RRT 1.31",0.02%
same,Area % of peak 2,"[1]; 0.5 mg/mL in WFI in vials, pH 5.7, 72 hours, RRT 1.32",0.01%
same,Area % of peak 3,"[1]; 0.5 mg/mL in WFI in vials, pH 5.7, 72 hours, RRT 4.31",0.01%
same,Area % of guanfacine peak (peak 1),"[1]; 0.5 mg/mL in WFI in vials, pH 5.7, time zero, RRT 1.00",99.94%
same,Area % of peak 2,"[1]; 0.5 mg/mL in WFI in vials, pH 5.7, time zero, RRT 1.31",0.01%
same,Area % of peak 4 (degradation product),"[1]; 0.5 mg/mL in WFI in vials, pH 5.7, time zero, RRT 8.58",0.05%
same,remaining at 24 h,"[1]; water, 0.5 mg/mL in WFI in IV bags, pH 5.0, 24 hours, RRT 1.00, read-out: Area % of guanfacine peak (peak 1)",99.8%
same,degraded at 24 h,"[1]; water, 0.5 mg/mL in WFI in IV bags, pH 5.0, 24 hours, RRT 8.79, read-out: Area % of peak 2 (degradation product)",0.15%
same,remaining at 72 h,"[1]; water, 0.5 mg/mL in WFI in IV bags, pH 5.0, 72 hours, RRT 1.00, read-out: Area % of guanfacine peak (peak 1)",99.8%
same,remaining at 24 h,"[1]; water, 0.5 mg/mL in WFI in vials, pH 5.7, 24 hours, RRT 1.00, read-out: Area % of guanfacine peak (peak 1)",99.9%
same,degraded at 24 h,"[1]; water, 0.5 mg/mL in WFI in vials, pH 5.7, 24 hours, RRT 8.58, read-out: Area % of peak 4 (degradation product)",0.1%
same,remaining at 72 h,"[1]; water, 0.5 mg/mL in WFI in vials, pH 5.7, 72 hours, RRT 1.00, read-out: Area % of guanfacine peak (peak 1)",99.8%
same,degraded at 72 h,"[1]; water, IV bags, pH 5.0, 72 hours at room temperature, read-out: degradation product formed",0.16%
same,degraded at 168 h,"[1]; water, glass vials, pH 4.5, one week at room temperature, 1.14 mg/mL, read-out: degradation product formed",0.26%
same,degraded at 72 h,"[1]; water, vials, pH 5.7, 72 hours at room temperature, read-out: degradation product formed",0.23%
same,compatibility with Ropivacaine,"[3]; 1.0 mg/mL in WFI, 1:25 dilution of Guanfacine to Ropivacaine",compatible with Ropivacaine
same,Particulate Matter 10 μm,[3]; 0.1 mg/mL,0 Particles per mL
same,Particulate Matter 25 μm,[3]; 0.1 mg/mL,0 Particles per mL
same,Particulate Matter 10 μm,[3]; 1 mg/mL,6 Particles per mL
same,Particulate Matter 25 μm,[3]; 1 mg/mL,0 Particles per mL
same,concentration of Guanfacine freebase in the WFI control,[3]; nominal 0.1 mg/mL,100 µg/mL
same,concentration of Guanfacine freebase in the WFI control,[3]; nominal 1.0 mg/mL,1050 µg/mL
same,dissolution at 1 mg/mL,"[2]; pH 7.0, 1 mg/mL",did not completely dissolve

# From patent US20260373102A1, “INJECTABLE GUANFACINE FORMULATIONS AND METHODS” (Cumberland Pharmaceuticals Inc., priority 2023, published 2026)
